Values joined by “and” are separate entries in the source; they are usually repeats but may differ in a detail not shown here. Identical values can stand only once.
Legend:
Assay in all cases: KINOMEscan competition binding
Details in all cases: compound 10.0 µM
STK11 (human) = STK11 (human) (UniProt Q15831)
RPS6KA2 KD1 (human) = RPS6KA2 KD1 (human) (UniProt Q15349)
CDK9 (human) = CDK9 (human) (UniProt P50750)
CHUK (human) = CHUK (human) (UniProt O15111)
KDR (human) = KDR (human) (UniProt P35968)
TBK1 (human) = TBK1 (human) (UniProt Q9UHD2)
CSF1R (human) = CSF1R (human) (UniProt P07333)
MLTK (human) = MLTK (human) (UniProt Q9NYL2)
MAP2K7 (human) = MAP2K7 (human) (UniProt O14733)
LTK (human) = LTK (human) (UniProt P29376)
STK36 (human) = STK36 (human) (UniProt Q9NRP7)
STK38 (human) = STK38 (human) (UniProt Q15208)
EPHA2 (human) = EPHA2 (human) (UniProt P29317)
STK17A (human) = STK17A (human) (UniProt Q9UEE5)
ALK (human) = ALK (human) (UniProt Q9UM73)
RPS6KA6 KD1 (human) = RPS6KA6 KD1 (human) (UniProt Q9UK32)
AURKA (human) = AURKA (human) (UniProt O14965)
PDPK1 (human) = PDPK1 (human) (UniProt O15530)
PIK3C2B (human) = PIK3C2B (human) (UniProt O00750)
PLK2 (human) = PLK2 (human) (UniProt Q9NYY3)
FLT4 (human) = FLT4 (human) (UniProt P35916)
STK25 (human) = STK25 (human) (UniProt O00506)
MARK3 (human) = MARK3 (human) (UniProt P27448)
MAP3K5 (human) = MAP3K5 (human) (UniProt Q99683)
LIMK2 (human) = LIMK2 (human) (UniProt P53671)
DSTYK (human) = DSTYK (human) (UniProt Q6XUX3)
TNNI3K (human) = TNNI3K (human) (UniProt Q59H18)
RIOK1 (human) = RIOK1 (human) (UniProt Q9BRS2)
RIPK1 (human) = RIPK1 (human) (UniProt Q13546)
CLK3 (human) = CLK3 (human) (UniProt P49761)
GSK3B (human) = GSK3B (human) (UniProt P49841)
ROS1 (human) = ROS1 (human) (UniProt P08922)
[1] = biological target: JAK2 JH1 catalytic (human) (UniProt O60674)
[2] = test system: KIT (human), P10721 [A829P]
STK24 (human) = STK24 (human) (UniProt Q9Y6E0)
IKBKB (human) = IKBKB (human) (UniProt O14920)
NIM1 (human) = NIM1 (human) (UniProt Q8IY84)
EGFR (human) = EGFR (human) (UniProt P00533)
SGK3 (human) = SGK3 (human) (UniProt Q96BR1)
CDK14 (human) = CDK14 (human) (UniProt O94921)

Sequence of CSF1R (human) (P07333 whole entry, looked up): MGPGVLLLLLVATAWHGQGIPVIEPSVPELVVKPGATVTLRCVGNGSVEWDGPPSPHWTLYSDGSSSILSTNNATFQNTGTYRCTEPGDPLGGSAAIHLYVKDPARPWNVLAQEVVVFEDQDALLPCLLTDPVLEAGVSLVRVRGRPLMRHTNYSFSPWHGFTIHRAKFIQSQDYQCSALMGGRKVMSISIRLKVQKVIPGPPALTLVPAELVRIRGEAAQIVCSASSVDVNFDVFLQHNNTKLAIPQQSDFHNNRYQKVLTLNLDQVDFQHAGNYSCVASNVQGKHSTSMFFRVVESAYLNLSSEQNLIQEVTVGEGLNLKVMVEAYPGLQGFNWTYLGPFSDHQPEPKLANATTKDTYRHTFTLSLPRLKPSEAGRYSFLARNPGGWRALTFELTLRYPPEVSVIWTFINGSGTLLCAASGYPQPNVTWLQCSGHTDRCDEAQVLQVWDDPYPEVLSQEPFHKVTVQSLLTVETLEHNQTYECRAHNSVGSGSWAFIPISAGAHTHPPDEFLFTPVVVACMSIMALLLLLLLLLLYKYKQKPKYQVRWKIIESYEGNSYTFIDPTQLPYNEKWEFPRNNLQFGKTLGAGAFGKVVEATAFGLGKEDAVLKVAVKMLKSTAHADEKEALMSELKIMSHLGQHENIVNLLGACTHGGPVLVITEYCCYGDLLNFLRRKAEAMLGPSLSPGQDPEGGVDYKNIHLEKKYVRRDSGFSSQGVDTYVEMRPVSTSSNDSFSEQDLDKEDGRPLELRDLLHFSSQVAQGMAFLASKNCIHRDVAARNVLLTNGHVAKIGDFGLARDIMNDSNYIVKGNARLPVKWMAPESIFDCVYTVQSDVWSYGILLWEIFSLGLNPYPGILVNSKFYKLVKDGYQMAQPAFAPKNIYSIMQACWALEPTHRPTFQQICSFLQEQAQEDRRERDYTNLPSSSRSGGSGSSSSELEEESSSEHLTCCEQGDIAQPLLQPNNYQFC
Sequence of SGK3 (human) (Q96BR1 whole entry, looked up): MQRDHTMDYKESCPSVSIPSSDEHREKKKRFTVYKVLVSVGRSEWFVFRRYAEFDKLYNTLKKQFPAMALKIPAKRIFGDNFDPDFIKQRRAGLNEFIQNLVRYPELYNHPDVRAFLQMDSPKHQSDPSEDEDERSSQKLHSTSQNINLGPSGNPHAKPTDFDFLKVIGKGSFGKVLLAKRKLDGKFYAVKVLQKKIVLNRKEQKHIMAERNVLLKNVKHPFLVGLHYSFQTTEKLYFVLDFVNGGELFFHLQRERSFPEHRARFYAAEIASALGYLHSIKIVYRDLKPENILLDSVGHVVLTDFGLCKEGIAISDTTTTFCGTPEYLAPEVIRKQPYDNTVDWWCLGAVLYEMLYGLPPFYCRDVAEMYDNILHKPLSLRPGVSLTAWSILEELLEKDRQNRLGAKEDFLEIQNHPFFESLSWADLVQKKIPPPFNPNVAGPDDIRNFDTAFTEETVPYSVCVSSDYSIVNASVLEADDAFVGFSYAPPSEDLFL
Sequence of STK17A (human) (Q9UEE5 whole entry, looked up): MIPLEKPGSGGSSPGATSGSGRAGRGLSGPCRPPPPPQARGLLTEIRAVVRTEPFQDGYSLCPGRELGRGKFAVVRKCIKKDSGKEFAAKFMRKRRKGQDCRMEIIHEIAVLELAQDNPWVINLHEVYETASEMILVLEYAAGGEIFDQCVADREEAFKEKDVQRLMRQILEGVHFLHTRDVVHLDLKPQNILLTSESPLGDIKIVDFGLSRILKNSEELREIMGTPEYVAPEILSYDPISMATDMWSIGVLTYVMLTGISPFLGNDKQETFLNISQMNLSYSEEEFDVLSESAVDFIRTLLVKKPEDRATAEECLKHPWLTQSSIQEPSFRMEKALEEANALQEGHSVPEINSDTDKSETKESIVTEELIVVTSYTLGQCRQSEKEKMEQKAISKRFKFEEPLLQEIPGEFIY
Sequence of IKBKB (human) (O14920 whole entry, looked up): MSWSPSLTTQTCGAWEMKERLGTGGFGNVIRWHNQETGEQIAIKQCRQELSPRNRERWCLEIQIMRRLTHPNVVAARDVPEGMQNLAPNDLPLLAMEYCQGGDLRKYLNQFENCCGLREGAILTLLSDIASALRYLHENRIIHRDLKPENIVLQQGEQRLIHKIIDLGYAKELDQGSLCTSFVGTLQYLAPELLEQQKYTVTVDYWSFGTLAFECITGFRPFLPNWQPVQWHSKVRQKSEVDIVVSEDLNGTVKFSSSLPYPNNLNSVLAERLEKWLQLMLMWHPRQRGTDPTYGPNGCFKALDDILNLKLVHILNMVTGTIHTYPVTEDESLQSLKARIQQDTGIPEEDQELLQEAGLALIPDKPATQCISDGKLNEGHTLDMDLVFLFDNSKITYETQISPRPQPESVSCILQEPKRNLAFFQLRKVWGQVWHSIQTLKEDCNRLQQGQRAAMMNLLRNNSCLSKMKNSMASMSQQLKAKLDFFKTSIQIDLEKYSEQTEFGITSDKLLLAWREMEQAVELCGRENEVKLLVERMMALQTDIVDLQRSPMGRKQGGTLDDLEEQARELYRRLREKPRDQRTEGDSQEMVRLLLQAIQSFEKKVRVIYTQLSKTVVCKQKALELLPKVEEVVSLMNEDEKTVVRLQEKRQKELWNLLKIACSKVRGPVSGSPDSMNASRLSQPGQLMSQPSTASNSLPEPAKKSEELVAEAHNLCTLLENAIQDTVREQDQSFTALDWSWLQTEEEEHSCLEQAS
Sequence of LTK (human) (P29376 whole entry, looked up): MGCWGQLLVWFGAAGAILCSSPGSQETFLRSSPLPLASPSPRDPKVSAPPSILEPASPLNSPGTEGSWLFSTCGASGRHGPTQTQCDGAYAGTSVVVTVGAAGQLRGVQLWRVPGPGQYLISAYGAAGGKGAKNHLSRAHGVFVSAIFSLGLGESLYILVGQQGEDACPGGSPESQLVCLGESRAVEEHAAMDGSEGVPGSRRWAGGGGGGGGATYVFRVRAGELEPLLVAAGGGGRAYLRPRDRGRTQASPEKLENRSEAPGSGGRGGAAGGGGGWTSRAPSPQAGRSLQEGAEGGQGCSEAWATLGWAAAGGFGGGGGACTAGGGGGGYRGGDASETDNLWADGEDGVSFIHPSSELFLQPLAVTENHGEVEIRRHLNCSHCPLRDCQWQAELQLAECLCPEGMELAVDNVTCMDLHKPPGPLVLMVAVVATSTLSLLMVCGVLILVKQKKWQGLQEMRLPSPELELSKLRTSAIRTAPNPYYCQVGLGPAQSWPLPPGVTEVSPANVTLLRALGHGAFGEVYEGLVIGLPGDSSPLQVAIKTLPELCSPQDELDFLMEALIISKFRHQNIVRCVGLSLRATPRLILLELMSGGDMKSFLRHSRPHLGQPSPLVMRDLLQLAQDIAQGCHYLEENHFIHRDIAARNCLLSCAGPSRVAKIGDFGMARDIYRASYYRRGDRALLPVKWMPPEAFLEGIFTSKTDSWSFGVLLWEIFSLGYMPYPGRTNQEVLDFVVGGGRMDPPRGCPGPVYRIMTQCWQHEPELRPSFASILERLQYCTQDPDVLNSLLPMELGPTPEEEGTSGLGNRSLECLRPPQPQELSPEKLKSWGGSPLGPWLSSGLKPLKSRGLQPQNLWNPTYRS
Sequence of STK25 (human) (O00506 whole entry, looked up): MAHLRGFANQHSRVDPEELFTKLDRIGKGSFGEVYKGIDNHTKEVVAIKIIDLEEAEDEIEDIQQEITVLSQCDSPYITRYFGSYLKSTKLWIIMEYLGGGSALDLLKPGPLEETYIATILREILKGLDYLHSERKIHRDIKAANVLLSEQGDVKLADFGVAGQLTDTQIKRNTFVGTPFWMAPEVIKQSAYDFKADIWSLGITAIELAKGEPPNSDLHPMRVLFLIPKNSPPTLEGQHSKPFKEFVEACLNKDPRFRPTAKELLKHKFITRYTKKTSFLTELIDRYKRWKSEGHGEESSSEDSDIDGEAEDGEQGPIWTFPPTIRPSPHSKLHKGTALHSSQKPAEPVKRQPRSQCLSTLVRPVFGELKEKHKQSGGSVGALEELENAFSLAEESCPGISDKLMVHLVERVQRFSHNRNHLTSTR
Sequence of DSTYK (human) (Q6XUX3 whole entry, looked up): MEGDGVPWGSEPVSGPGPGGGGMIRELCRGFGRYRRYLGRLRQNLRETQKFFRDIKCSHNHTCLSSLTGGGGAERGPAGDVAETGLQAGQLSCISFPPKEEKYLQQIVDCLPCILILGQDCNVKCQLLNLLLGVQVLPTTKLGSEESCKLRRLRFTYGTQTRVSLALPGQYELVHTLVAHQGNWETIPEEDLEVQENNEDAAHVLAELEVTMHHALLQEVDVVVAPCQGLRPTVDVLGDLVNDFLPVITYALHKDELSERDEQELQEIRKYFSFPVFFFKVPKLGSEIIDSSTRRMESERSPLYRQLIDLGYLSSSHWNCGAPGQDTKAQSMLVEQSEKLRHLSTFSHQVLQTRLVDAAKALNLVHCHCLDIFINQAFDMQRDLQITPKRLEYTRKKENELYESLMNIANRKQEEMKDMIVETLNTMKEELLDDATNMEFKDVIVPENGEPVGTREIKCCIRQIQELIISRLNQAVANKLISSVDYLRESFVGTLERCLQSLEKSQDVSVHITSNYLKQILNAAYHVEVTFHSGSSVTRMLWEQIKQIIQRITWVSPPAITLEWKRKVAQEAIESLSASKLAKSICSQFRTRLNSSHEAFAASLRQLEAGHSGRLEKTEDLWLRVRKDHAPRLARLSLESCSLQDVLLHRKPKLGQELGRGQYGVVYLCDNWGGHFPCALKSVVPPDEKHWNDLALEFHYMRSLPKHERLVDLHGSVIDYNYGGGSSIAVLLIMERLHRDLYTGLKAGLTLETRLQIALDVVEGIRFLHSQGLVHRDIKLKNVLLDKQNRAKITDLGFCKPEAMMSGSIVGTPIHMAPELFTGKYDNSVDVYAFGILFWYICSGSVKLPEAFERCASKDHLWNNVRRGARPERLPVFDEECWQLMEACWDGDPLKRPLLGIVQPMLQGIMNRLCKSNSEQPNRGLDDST

Compound | kinase still bound, per cent of control (STK11 (human)) | kinase still bound, per cent of control (RPS6KA2 KD1 (human)) | kinase still bound, per cent of control (CDK9 (human)) | kinase still bound, per cent of control (CHUK (human)) | kinase still bound, per cent of control (KDR (human)) | kinase still bound, per cent of control (TBK1 (human)) | kinase still bound, per cent of control (CSF1R (human)) | kinase still bound, per cent of control (MLTK (human)) | kinase still bound, per cent of control (MAP2K7 (human)) | kinase still bound, per cent of control (LTK (human)) | kinase still bound, per cent of control (STK36 (human)) | kinase still bound, per cent of control (STK38 (human)) | kinase still bound, per cent of control (EPHA2 (human)) | kinase still bound, per cent of control (STK17A (human)) | kinase still bound, per cent of control (ALK (human)) | kinase still bound, per cent of control (RPS6KA6 KD1 (human)) | kinase still bound, per cent of control (AURKA (human)) | kinase still bound, per cent of control (PDPK1 (human)) | kinase still bound, per cent of control (PIK3C2B (human)) | kinase still bound, per cent of control (PLK2 (human)) | also measured
O=c1[nH]c2ccccc2n1C1CCN(Cc2ccc(-c3nc4cc5[nH]cnc5cc4nc3-c3ccccc3)cc2)CC1 | 94% | 51% | 100% | 75% | 86% | 70% | 99% and 76% | 92% | 80% | 56% | 74% | 62% | 100% | 100% | 37% | 75% | 68% | 93% | 54% | 88% | kinase still bound, per cent of control (FLT4 (human)): 100%; kinase still bound, per cent of control (STK25 (human)): 97%; kinase still bound, per cent of control (MARK3 (human)): 72%; kinase still bound, per cent of control (MAP3K5 (human)): 83%; kinase still bound, per cent of control (LIMK2 (human)): 100%; kinase still bound, per cent of control (DSTYK (human)): 76%; kinase still bound, per cent of control (TNNI3K (human)): 100%; kinase still bound, per cent of control (RIOK1 (human)): 76%; kinase still bound, per cent of control (RIPK1 (human)): 100%; kinase still bound, per cent of control (CLK3 (human)): 100%; kinase still bound, per cent of control (GSK3B (human)): 89%; kinase still bound, per cent of control (ROS1 (human)): 50%; kinase still bound, per cent of control [1]: 67%; kinase still bound, per cent of control [2]: 100%; kinase still bound, per cent of control (STK24 (human)): 100%; kinase still bound, per cent of control (IKBKB (human)): 79%; kinase still bound, per cent of control (NIM1 (human)): 71%; kinase still bound, per cent of control (EGFR (human)): 65%; kinase still bound, per cent of control (SGK3 (human)): 75% and 100%; kinase still bound, per cent of control (CDK14 (human)): 100%
CNC(=O)Nc1ccc(-c2nc(N3CC4CCC(C3)O4)c3cnn(C4CCC5(CC4)OCCO5)c3n2)cc1 | 80% | 100% | 100% | 100% | 76% | 82% | 100% | 77% | 100% | 68% | 96% | 100% | 81% | 100% | 42% | 87% | 100% | 76% | 25% | 100% | kinase still bound, per cent of control (FLT4 (human)): 88%; kinase still bound, per cent of control (STK25 (human)): 91%; kinase still bound, per cent of control (MARK3 (human)): 92%; kinase still bound, per cent of control (MAP3K5 (human)): 85%; kinase still bound, per cent of control (LIMK2 (human)): 88%; kinase still bound, per cent of control (DSTYK (human)): 100%; kinase still bound, per cent of control (TNNI3K (human)): 59%; kinase still bound, per cent of control (RIOK1 (human)): 91%; kinase still bound, per cent of control (RIPK1 (human)): 83%; kinase still bound, per cent of control (CLK3 (human)): 31%; kinase still bound, per cent of control (GSK3B (human)): 69%; kinase still bound, per cent of control (ROS1 (human)): 81%; kinase still bound, per cent of control [1]: 100%; kinase still bound, per cent of control [2]: 89%; kinase still bound, per cent of control (STK24 (human)): 96%; kinase still bound, per cent of control (IKBKB (human)): 79%; kinase still bound, per cent of control (NIM1 (human)): 100%; kinase still bound, per cent of control (EGFR (human)): 62%; kinase still bound, per cent of control (SGK3 (human)): 100%; kinase still bound, per cent of control (CDK14 (human)): 94%
